From patent US9708314B2, “Heterocyclic amide compound” (NISSAN CHEMICAL INDUSTRIES, LTD., priority 2013, dated 2017)

What was measured:
Assay type in all cases: in vivo
[1] = tested on: Echinochloa oryzacola Vasing.; experiment: Test Example 1: herbicidal activity, application before weed generation in submerged conditions; settings: Application herbicide amount 320 g/ha; Seventeenth Table
Outline: (§1)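 Pre-emergence water-surface application under 4 cm flooding, same day as sowing, with rice transplanted at 2.5 leaf stage. Dose given as g/ha. Plants grown at 25° C. to 30° C. and rated three weeks later on a 0 (≤5%) to 5 (≥90%) herbicidal-ratio scale.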

Monochoria vaginalis = experiment: as above; settings: Application herbicide amount 320 g/ha; Seventeenth Table
Outline: as §1

Scirpus juncoides = experiment: as above; settings: Application herbicide amount 320 g/ha; Seventeenth Table
Outline: as §1

Abutilon theophrasti = experiment: Test Example 4: herbicidal effect by application to foliage (diluvial soil, plastic box); settings: 320 g/ha; for M (Abutilon theophrasti) herbicidal effect grade: foliage application
Outline: (§2)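 Seeds sown in sterilized diluvial soil, covered ~1.5 cm, grown 14 days in greenhouse at 25° C. to 30° C. Emulsion formulation diluted in water to set rate (g/ha) and sprayed onto stems and leaves. Effect scored visually 3 weeks later on 0–5 scale (5 = ≥90% herbicidal ratio, 0 = ≤5%).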

Alopecurus myosuroides = experiment: as above; settings: 320 g/ha; for J (Alopecurus myosuroides) herbicidal effect grade: foliage application
Outline: as §2

Amaranthus retroflexus = experiment: as above; settings: 320 g/ha; for N (Amaranthus retroflexus) herbicidal effect grade: foliage application
Outline: as §2

Apera spica-venti. = experiment: as above; settings: 320 g/ha; for L (Apera spica-venti.) herbicidal effect grade: foliage application
Outline: as §2

Avena fatua = experiment: as above; settings: 320 g/ha; for I (Avena fatua) herbicidal effect grade: foliage application
Outline: as §2

Chenopodium album = experiment: as above; settings: 320 g/ha; for O (Chenopodium album) herbicidal effect grade: foliage application
Outline: as §2

Digitaria ciliaris = experiment: as above; settings: 320 g/ha; for F (Digitaria ciliaris) herbicidal effect grade: foliage application
Outline: as §2

[2] = tested on: Echinochloa crus-galli var. crus-galli; experiment: as above; settings: 320 g/ha; for H (Echinochloa crus-galli var. crus-galli) herbicidal effect grade: foliage application
Outline: as §2

Galium spurium = experiment: as above; settings: 320 g/ha; for Q (Galium spurium) herbicidal effect grade: foliage application
Outline: as §2

Lolium multiflorum Lam. = experiment: as above; settings: 320 g/ha; for K (Lolium multiflorum Lam.) herbicidal effect grade: foliage application
Outline: as §2

Setaria viridis = experiment: as above; settings: 320 g/ha; for G (Setaria viridis) herbicidal effect grade: foliage application
Outline: as §2

Stellaria media = experiment: as above; settings: 320 g/ha; for P (Stellaria media) herbicidal effect grade: foliage application
Outline: as §2

Veronica persica = experiment: as above; settings: 320 g/ha; for R (Veronica persica) herbicidal effect grade: foliage application
Outline: as §2

[3] = tested on: Beta vulgaris ssp. vulgaris; experiment: Test Example 4: effect on crop by application to foliage (diluvial soil, plastic box); settings: 320 g/ha; for f (Beta vulgaris ssp. vulgaris) effect on crop grade: foliage application
Outline: as §2

Brassica campestris L. = experiment: as above; settings: 320 g/ha; for g (Brassica campestris L.) effect on crop grade: foliage application
Outline: as §2

Glycine max = experiment: as above; settings: 320 g/ha; for c (Glycine max) effect on crop grade: foliage application
Outline: as §2

Triticum aestivum = experiment: as above; settings: 320 g/ha; for e (Triticum aestivum) effect on crop grade: foliage application
Outline: as §2

Zea mays = experiment: as above; settings: 320 g/ha; for b (Zea mays) effect on crop grade: foliage application
Outline: as §2

[4] = tested on: directly sowed Oryza sativa; experiment: as above; settings: 320 g/ha; for d (directly sowed Oryza sativa) effect on crop grade: foliage application
Outline: as §2

Row | SMILES | A: Echinochloa oryzicola Vasing. (herbicidal effect grade) [1] | C: Monochoria vaginalis (herbicidal effect grade) (Monochoria vaginalis) | B: Scirpus juncoides (herbicidal effect grade) (Scirpus juncoides) | M (Abutilon theophrasti) herbicidal effect grade (Abutilon theophrasti) | J (Alopecurus myosuroides) herbicidal effect grade (Alopecurus myosuroides) | N (Amaranthus retroflexus) herbicidal effect grade (Amaranthus retroflexus) | L (Apera spica-venti.) herbicidal effect grade (Apera spica-venti.) | I (Avena fatua) herbicidal effect grade (Avena fatua) | O (Chenopodium album) herbicidal effect grade (Chenopodium album) | F (Digitaria ciliaris) herbicidal effect grade (Digitaria ciliaris) | H (Echinochloa crus-galli var. crus-galli) herbicidal effect grade [2] | Q (Galium spurium) herbicidal effect grade (Galium spurium) | K (Lolium multiflorum Lam.) herbicidal effect grade (Lolium multiflorum Lam.) | G (Setaria viridis) herbicidal effect grade (Setaria viridis) | P (Stellaria media) herbicidal effect grade (Stellaria media) | R (Veronica persica) herbicidal effect grade (Veronica persica) | f (Beta vulgaris ssp. vulgaris) effect on crop grade [3] | g (Brassica campestris L.) effect on crop grade (Brassica campestris L.) | c (Glycine max) effect on crop grade (Glycine max) | e (Triticum aestivum) effect on crop grade (Triticum aestivum) | other results
1 | Cn1nnnc1NC(=O)c1ccc(C(F)(F)F)n2c(N3CCSCC3)nnc12 [2-078] | 5 (Herbicidal ratio of 90% or more (almost completely withered)) | 2 (Herbicidal ratio of 20% or more and less than 40%) | 4 (Herbicidal ratio of 70% or more and less than 90%) | – | – | – | – | – | – | – | – | – | – | – | – | – | – | – | – | – | herbicidal effect, M (Abutilon theophrasti) (Abutilon theophrasti; application to foliage): 5 (Herbicidal ratio of 90% or more (almost completely withered)); herbicidal effect, J (Alopecurus myosuroides) (Alopecurus myosuroides; application to foliage): 4 (Herbicidal ratio of 70% or more and less than 90%); herbicidal effect, N (Amaranthus retroflexus) (Amaranthus retroflexus; application to foliage): 5 (Herbicidal ratio of 90% or more (almost completely withered)); herbicidal effect, L (Apera spica-venti.) (Apera spica-venti.; application to foliage): 5 (Herbicidal ratio of 90% or more (almost completely withered)); herbicidal effect, I (Avena fatua) (Avena fatua; application to foliage): 3 (Herbicidal ratio of 40% or more and less than 70%); herbicidal effect, O (Chenopodium album) (Chenopodium album; application to foliage): 5 (Herbicidal ratio of 90% or more (almost completely withered)); herbicidal effect, F (Digitaria ciliaris) (Digitaria ciliaris; application to foliage): 5 (Herbicidal ratio of 90% or more (almost completely withered)); herbicidal effect, H (Echinochloa crus-galli var. crus-galli) ([2]; application to foliage): 5 (Herbicidal ratio of 90% or more (almost completely withered)); herbicidal effect, Q (Galium spurium) (Galium spurium; application to foliage): 4 (Herbicidal ratio of 70% or more and less than 90%); herbicidal effect, K (Lolium multiflorum Lam.) (Lolium multiflorum Lam.; application to foliage): 4 (Herbicidal ratio of 70% or more and less than 90%); herbicidal effect, G (Setaria viridis) (Setaria viridis; application to foliage): 5 (Herbicidal ratio of 90% or more (almost completely withered)); herbicidal effect, P (Stellaria media) (Stellaria media; application to foliage): 5 (Herbicidal ratio of 90% or more (almost completely withered)); herbicidal effect, R (Veronica persica) (Veronica persica; application to foliage): 5 (Herbicidal ratio of 90% or more (almost completely withered)); effect on crop, f (Beta vulgaris ssp. vulgaris) ([3]; application to foliage): 5 (Herbicidal ratio of 90% or more (almost completely withered)); effect on crop, g (Brassica campestris L.) (Brassica campestris L.; application to foliage): 5 (Herbicidal ratio of 90% or more (almost completely withered)); effect on crop, c (Glycine max) (Glycine max; application to foliage): 1 (Herbicidal ratio of 5% or more and less than 20%); effect on crop, e (Triticum aestivum) (Triticum aestivum; application to foliage): 2 (Herbicidal ratio of 20% or more and less than 40%); effect on crop, b (Zea mays) (Zea mays; application to foliage): 4 (Herbicidal ratio of 70% or more and less than 90%); effect on crop, d (directly sowed Oryza sativa) ([4]; application to foliage): 4 (Herbicidal ratio of 70% or more and less than 90%)
2 | CN(C)c1nnc2c(C(=O)Nc3nnnn3C)ccc(C(F)(F)F)n12 [2-051] | 5 (Herbicidal ratio of 90% or more (almost completely withered)) | 5 (Herbicidal ratio of 90% or more (almost completely withered)) | 5 (Herbicidal ratio of 90% or more (almost completely withered)) | 5 (Herbicidal ratio of 90% or more (almost completely withered)) | 4 (Herbicidal ratio of 70% or more and less than 90%) | 5 (Herbicidal ratio of 90% or more (almost completely withered)) | 5 (Herbicidal ratio of 90% or more (almost completely withered)) | 5 (Herbicidal ratio of 90% or more (almost completely withered)) | 5 (Herbicidal ratio of 90% or more (almost completely withered)) | 5 (Herbicidal ratio of 90% or more (almost completely withered)) | 5 (Herbicidal ratio of 90% or more (almost completely withered)) | 5 (Herbicidal ratio of 90% or more (almost completely withered)) | 4 (Herbicidal ratio of 70% or more and less than 90%) | 5 (Herbicidal ratio of 90% or more (almost completely withered)) | 5 (Herbicidal ratio of 90% or more (almost completely withered)) | 5 (Herbicidal ratio of 90% or more (almost completely withered)) | 5 (Herbicidal ratio of 90% or more (almost completely withered)) | 4 (Herbicidal ratio of 70% or more and less than 90%) | 2 (Herbicidal ratio of 20% or more and less than 40%) | 4 (Herbicidal ratio of 70% or more and less than 90%) | b (Zea mays) effect on crop grade (Zea mays): 4 (Herbicidal ratio of 70% or more and less than 90%); d (directly sowed Oryza sativa) effect on crop grade [4]: 4 (Herbicidal ratio of 70% or more and less than 90%)
3 | Cn1nnnc1NC(=O)c1ccc(C(F)(F)F)n2c(CS(C)(=O)=O)nnc12 [2-034] | 5 (Herbicidal ratio of 90% or more (almost completely withered)) | 4 (Herbicidal ratio of 70% or more and less than 90%) | 4 (Herbicidal ratio of 70% or more and less than 90%) | 5 (Herbicidal ratio of 90% or more (almost completely withered)) | 5 (Herbicidal ratio of 90% or more (almost completely withered)) | 5 (Herbicidal ratio of 90% or more (almost completely withered)) | 5 (Herbicidal ratio of 90% or more (almost completely withered)) | 5 (Herbicidal ratio of 90% or more (almost completely withered)) | 5 (Herbicidal ratio of 90% or more (almost completely withered)) | 5 (Herbicidal ratio of 90% or more (almost completely withered)) | 5 (Herbicidal ratio of 90% or more (almost completely withered)) | 5 (Herbicidal ratio of 90% or more (almost completely withered)) | 5 (Herbicidal ratio of 90% or more (almost completely withered)) | 5 (Herbicidal ratio of 90% or more (almost completely withered)) | 5 (Herbicidal ratio of 90% or more (almost completely withered)) | 5 (Herbicidal ratio of 90% or more (almost completely withered)) | 5 (Herbicidal ratio of 90% or more (almost completely withered)) | 5 (Herbicidal ratio of 90% or more (almost completely withered)) | 3 (Herbicidal ratio of 40% or more and less than 70%) | 5 (Herbicidal ratio of 90% or more (almost completely withered)) | b (Zea mays) effect on crop grade (Zea mays): 5 (Herbicidal ratio of 90% or more (almost completely withered)); d (directly sowed Oryza sativa) effect on crop grade [4]: 5 (Herbicidal ratio of 90% or more (almost completely withered))
